Assay results taken from US4649139A, “1,2,4-triazines” (Burroughs Wellcome Co., priority 1983, dated 1987).

Legend:
[1] = test system: aconitine-induced ventricular arrhythmias in anaesthetised rats; experiment: animal or person; assay type: in vivo, Male Wistar rats; settings: for % decrease in DBP: resting diastolic blood pressure; for amount of aconitine required to elicit ventricular arrhythmia (in words): pretreatment i.v., versus control animals
Method: Male Wistar rats weighing 200-300 g were used. Anaesthesia was induced with a halothane:air mixture and maintained by intravenous administration of a chloralose/pentobarbitone sodium mixture (3 mg/ml pentobarbitone sodium+9.5 mg/ml chloralose) after insertion of a femoral vein cannula. A tracheal cannula was inserted and the animal was respired via a Palmer small animal respiration pump (72 strokes/min and approx 1 ml/100 g). Rectal temperature was thermostatically maintained at 37° C. throughout the experiment. Cannulae were placed in a jugular vein for administration of aconitine and a carotid artery for continuous measurement of blood pressure. Subdermal needle electrodes were inserted for the recording of electrocardiograms throughout the experiment.
When the blood pressure of the animal had stabilised for 10-15 minutes, aconitine (dissolved in distilled water+HCl and diluted in 5% dextrose) was infused via the jugular vein cannula at a rate of 1 μg/min (0.03 mls/min). The total dose of aconitine required to produce ventricular tachycardia or ventricular fibrillation (VT/VF) of at least 1 sec duration was taken as the endpoint of the assay.
Anti-arrhythmic activity was assessed by pretreating animals randomly with drug or vehicle 15 mins prior to aconitine infusion and comparing the dose of aconitine necessary to induce ventricular arrhythmias in treatment groups with that of control groups. The compounds in accordance with the invention were administered as the mesylate or hydrochloride salt prepared immediately before use in a 5% dextrose solution. All drugs were administered via a femoral venous cannula in a dose volume of 0.5 ml.

[2] = test system: guinea-pig right ventricular muscle; experiment: Guinea-pig right ventricular muscle preparation (Vmax of phase 0 of the action potential); assay type: cell-based, male guinea-pigs; settings: Cavia porcellus; stimulated at 1 Hz; 0 to 3×10^-4 M in modified Tyrodes solution; read-out: EC50 (50% reduction in Vmax)
Excerpt: Guinea-pig right ventricular muscle preparation: (Campbell, Brit.J.Pharmac., 1982, 77, 541-548)
Strips of right ventricle excised from male guinea-pigs were electrically stimulated at a frequency of 1 Hz with punctate, bipolar silver wire electrodes.

beagle dogs = experiment: Toxicity in dogs, daily administration for 14 days; settings: two to three times the effective dose, daily for 14 days
Stability of the base = assay type: physicochemical; settings: free base
[3] = Rattus norvegicus, iv, 0.25 h, read-out: % increase in aconitine to elicit VT/VF

| SMILES | change in vivo at 1 mg/kg [1, 3] | % decrease in DBP ([1]; dose 1 mg/kg (i.v.)) | further results |
| --- | --- | --- | --- |
| Cn1nc(-c2ccccc2Cl)c(N)nc1=N [Example 9, 5(3)-Amino-6-(2-chlorophenyl)-2,3(2,5)-dihydro-3(5)-imino-2-methyl-1,2,4-triazine] | 32% | 4% | – |
| Cn1nc(-c2ccc(Cl)cc2Cl)c(N)nc1=N [Example 11, 5(3)-Amino-6-(2,4-dichlorophenyl)-2,3(2,5)-dihydro-3(5)-imino-2-methyl-1,2,4-triazine] | 33% | 7% | – |
| Cn1nc(-c2c(F)cccc2Cl)c(N)nc1=N [Example 6, 5(3)-Amino-6-(2-chloro-6-fluorophenyl)-2,3(2,5)-dihydro-3(5)-imino-2-methyl-1,2,4-triazine] | – | – | change in vivo at 5 mg/kg [1, 3]: 149%; % decrease in DBP ([1]; dose 5 mg/kg (i.v.)): 1% |
| CC(C)n1nc(-c2cccc(Cl)c2Cl)c(N)nc1=N [Example 4, 5(3)-Amino-6-(2,3-dichlorophenyl)-2,3(2,5)-dihydro-3(5)-imino-2-isopropyl-1,2,4-triazine] | 490% | 13% | IC50 [2]: 2.2 µM; toxicity (in words) (beagle dogs): No marked toxicity was observed |
| N=c1nc(N)c(-c2cccc(Cl)c2Cl)nn1Cc1ccccc1 [Example 12, 5(3)-Amino-6-(2,3-dichlorophenyl)-2,3(2,5)-dihydro-3(5)-imino-2-benzyl-1,2,4-triazine] | 14% | 5% | – |
| CCN(CC)CCNC(=O)c1ccc(N)cc1 [Procainamide, reference compound] | – | – | change in vivo at 20 mg/kg [1, 3]: 11%; % decrease in DBP ([1]; dose 20 mg/kg (i.v.)): 22%; amount of aconitine required to elicit ventricular arrhythmia (in words) [1]: increased the amount of aconitine required to elicit the same ventricular arrhythmia |
| CCCCCn1nc(-c2cccc(Cl)c2Cl)c(N)nc1=N [Example 18, 5(3)-Amino-6-(2,3-dichlorophenyl)-2,3(2,5)-dihydro-3(5)-imino-2-n-pentyl-1,2,4-triazine] | 46% | 1% | stability of the base (in words) (Stability of the base): unstable |
| Cn1nc(-c2cc(Cl)ccc2Cl)c(N)nc1=N [Example 2, 5(3)-Amino-6-(2,5-dichlorophenyl)-2,3(2,5)-dihydro-3(5)-imino-2-methyl-1,2,4-triazine] | – | – | change in vivo at 5 mg/kg [1, 3]: 440%; % decrease in DBP ([1]; dose 5 mg/kg (i.v.)): 10% |
| Cn1nc(-c2cccc(Cl)c2Cl)c(N)nc1=N [Example 1, 5(3)-Amino-6-(2,3-dichlorophenyl)-2,3(2,5)-dihydro-3(5)-imino-2-methyl-1,2,4-triazine] | 29% | 11% | IC50 [2]: 130 µM |
| O=C1NC(=O)C(c2ccccc2)(c2ccccc2)N1 [Phenytoin, reference compound] | – | – | change in vivo at 10 mg/kg [1, 3]: 19%; % decrease in DBP ([1]; dose 10 mg/kg (i.v.)): 4%; amount of aconitine required to elicit ventricular arrhythmia (in words) [1]: increased the amount of aconitine required to elicit the same ventricular arrhythmia |
| Cn1nc(-c2ccccc2)c(N)nc1=N [Example 5, 5(3)-Amino-6-phenyl-2,3(2,5)-dihydro-3(5)-imino-2-methyl-1,2,4-triazine] | – | – | change in vivo at 5 mg/kg [1, 3]: 30%; % decrease in DBP ([1]; dose 5 mg/kg (i.v.)): 5% |
| CCCOc1ccccc1-c1nn(C)c(=N)nc1N [Example 16, 5(3)-Amino-6-(2-n-propyloxyphenyl)-2,3(2,5)-dihydro-3(5)-imino-2-methyl-1,2,4-triazine] | 15% | 3% | – |
| Cn1nc(-c2ccccc2I)c(N)nc1=N [Example 7, 5(3)-Amino-6-(2-iodophenyl)-2,3(2,5)-dihydro-3(5)-imino-2-methyl-1,2,4-triazine] | – | – | change in vivo at 5 mg/kg [1, 3]: 106%; % decrease in DBP ([1]; dose 5 mg/kg (i.v.)): 13% |
| CCN(CC)CC(=O)Nc1c(C)cccc1C [Lidocaine, reference compound] | – | – | change in vivo at 10 mg/kg [1, 3]: 44%; % decrease in DBP ([1]; dose 10 mg/kg (i.v.)): 1%; amount of aconitine required to elicit ventricular arrhythmia (in words) [1]: increased the amount of aconitine required to elicit the same ventricular arrhythmia |
| CCCn1nc(-c2cccc(Cl)c2Cl)c(N)nc1=N [Example 10, 5(3)-Amino-6-(2,3-dichlorophenyl)-2,3(2,5)-dihydro-3(5)-imino-2-n-propyl-1,2,4-triazine] | 225% | 3% | – |
| COc1ccccc1-c1nn(C)c(=N)nc1N [Example 8, 5(3)-Amino-6-(2-methoxyphenyl)-2,3(2,5)-dihydro-3(5)-imino-2-methyl-1,2,4-triazine] | – | – | change in vivo at 10 mg/kg [1, 3]: 51%; % decrease in DBP ([1]; dose 10 mg/kg (i.v.)): 8% |
| CC(C)NCC(O)COc1cccc2ccccc12 (centres unmarked) [Propranolol, reference compound] | 51% | 0% | amount of aconitine required to elicit ventricular arrhythmia (in words) [1]: increased the amount of aconitine required to elicit the same ventricular arrhythmia |
| CCCc1ccccc1-c1nn(C)c(=N)nc1N [Example 15, 5(3)-Amino-6-(2-n-propylphenyl)-2,3(2,5)-dihydro-3(5)-imino-2-methyl-1,2,4-triazine] | 12% | 5% | – |
| CCCCCCCOc1ccccc1-c1nn(C)c(=N)nc1N [Example 17, 5(3)-Amino-6-(2-n-heptyloxyphenyl)-2,3(2,5)-dihydro-3(5)-imino-2-methyl-1,2,4-triazine] | 154% | 3% | – |
| Cn1nc(-c2cc(Cl)cc(Cl)c2Cl)c(N)nc1=N [Example 13, 5(3)-Amino-6-(2,3,5-trichlorophenyl)-2,3(2,5)-dihydro-3(5)-imino-2-methyl-1,2,4-triazine] | 246% | 1% | – |
| CCCCCOc1ccccc1-c1nn(C)c(=N)nc1N [Example 3, 5(3)-Amino-6-(2-n-pentyloxyphenyl)-2,3(2,5)-dihydro-3(5)-imino-2-methyl-1,2,4-triazine] | 144% | 8% | IC50 [2]: 5.9 µM |
| CCCCCOc1ccc(-c2nn(C)c(=N)nc2N)cc1 [Example 14, 5(3)-Amino-6-(4-n-pentyloxyphenyl)-2,3(2,5)-dihydro-3(5)-imino-2-methyl-1,2,4-triazine] | 8% | 2% | – |
| COc1ccc(CCN(C)CCCC(C#N)(c2ccc(OC)c(OC)c2)C(C)C)cc1OC (centres unmarked) [Verapamil, reference compound] | 84% | 68% | amount of aconitine required to elicit ventricular arrhythmia (in words) [1]: increased the amount of aconitine required to elicit the same ventricular arrhythmia |
| C=C[C@H]1C[N@@]2CC[C@H]1C[C@@H]2[C@@H](O)c1ccnc2ccc(OC)cc12 [Quinidine, reference compound] | – | – | change in vivo at 10 mg/kg [1, 3]: 8%; % decrease in DBP ([1]; dose 10 mg/kg (i.v.)): 43%; amount of aconitine required to elicit ventricular arrhythmia (in words) [1]: increased the amount of aconitine required to elicit the same ventricular arrhythmia |
